Assay results taken from patent US20230348437A1, “COMPOUNDS, COMPOSITIONS AND METHODS” (Denali Therapeutics Inc., priority 2020, published 2023).

These compounds were tested on NLRP3 (IL-1β secretion from THP-1 cells) (assay: IL-1β secretion assay in 384-well plates, PMA differentiated THP-1 cells, LPS and nigericin stimulation). Details: Homo sapiens; THP-1 cells, PMA 5 ng/mL, LPS 25 ng/mL, nigericin, IL-1β ELISA, 384-well; read-out: Activity.
Type: cell-based
Method: Compounds as provided herein were tested in the following assay. […] Freezing medium was made up of 90% FBS and 10% DMSO. THP-1 cells were removed from the liquid nitrogen and placed into a 37° C. water bath to thaw, until signs of ice dissipated. The cells were then added to 9 mL of warm cell culture medium and centrifuged for 5 minutes at 1000 rpm. The supernatant was discarded, and the cells were resuspended in new cell culture medium. The THP-1 cells were then split and cultured in the cell culture medium, being passaged every 2-3 days (5×10^5 cells/mL passaged every two days, 3×10^5 cells/mL passaged every three days). Cell density was maintained between 5×10^5-1.5×10^6 viable cells/mL.
PMA was dissolved in DMSO to make a stock solution at 5 mg/mL and stored in 10 µl aliquots at -20° C. for single use. PMA is added to normal growth medium. LPS was diluted with 1 mL of water solution to provide a 1 mg/mL stock solution and stored in 15 µl aliquots at -20° C. for single use. Nigericin is diluted in ice cold 100% ethanol to 5 mg/mL (6.7 mM) and stored in 75 µL aliquots at -20° C. for single use. […] The two control conditions used to qualify and normalize test compound dose-response curves were as follows: High Control = 25 ng/mL LPS, 5 µM Nigericin, 0.5% DMSO, Low Control = 25 ng/mL, LPS, 0.5% DMSO.
THP-1 cells were diluted to provide a suspension at a concentration of 1.0×10^6 cells/mL with the total volume of suspension required to enable the desired number of assay plates. The growth media was supplemented with PMA (5 ng/mL final concentration) and the cells were incubated at 37° C. under a humidified atmosphere of 5% CO2 for 40 h.
All media was carefully aspirated from each culture flask. The cells were washed carefully with 1x DPBS. The cells were then briefly digested with trypsin LE for 5 minutes at 23° C. and immediately resuspended in cell growth media. After resuspension, the cells were centrifuged at 1000 rpm for 3 minutes and the supernatant was discarded. The cells were resuspended in DPBS and once again centrifuged at 1000 rpm for 5 minutes. The supernatant was discarded and the cell pellet was resuspended in serum-free media supplemented with LPS (25 ng/mL final concentration) to enable the distribution of 30 K THP-1 cells within 45 µL of media into each well of 384-well PDL-coated plates. The 384-well plates were then incubated at 37° C. under a humidified atmosphere of 5% CO2 for 2 h. Following this period, test compounds were dispensed by Tecan across the desired concentration range with all wells normalized to a final 0.5 % DMSO concentration. The plates were then incubated at 37° C. under a humidified atmosphere of 5% CO2 for 1 h. Following this period, 5 µL of the […] nigericin stock solution was added to each of the appropriate wells and plates were centrifuged at 1000 rpm for 30 seconds. The plates were the immediately reintroduced to the incubator at 37° C. under a humidified atmosphere of 5% CO2 for 2 h. After this time, 35 µL/well of supernatant was collected and transferred into v-bottom plate and centrifuged at 1000 rpm for 1 minute. These supernatant aliquots were analyzed using an IL-Iβ detection kit as described below. If needed, the test samples could be snap frozen and stored at -80° C. until analyzed.
To prepare each ELISA plate, capture antibody (mAb Mt175) was diluted with PBS to a final concentration of 2 µg/mL and then 20 µL of this solution was added to each well of the ELISA plate. Each plate was allowed to incubate overnight at 4° C. The next day, the capture antibody solution was removed and discarded. […] Each ELISA plate was then allowed to incubate for 1 hour at 23° C. After this time, the blocking buffer was removed and discarded. Each ELISA plate was washed 4 times with PBST. During this time, the v-bottomed plates containing the supernatant aliquots from the assay run were centrifuged at 300 g for 5 minutes before transferring 15 µL/well of the supernatant sample to each ELISA plate. […]

Point of comparison: CC(C)c1nn(CC(=O)N[C@H]2C[C@@](C)(O)C2)c(=O)cc1-c1cccc(F)c1F [Example 25, 2-[4-(2,3-difluorophenyl)-6-oxo-3-propan-2-ylpyridazin-1-yl]-N-(cis-3-hydroxy-3-methylcyclobutyl)acetamide], IC50 1820 nM. Against it:
- O=C(Cn1nc(C2CC2(F)F)c(-c2cc(F)cc(F)c2)cc1=O)Nc1ncncc1F (stereo not shown) [Example 49, 2-[3-(2,2-difluorocyclopropyl)-4-(3,5-difluorophenyl)-6-oxopyridazin-1-yl]-N-(5-fluoropyrimidin-4-yl)acetamide] — 1.8-fold higher, 3240 nM
- O=C(Cn1nc(C2CC2)c(-c2cc(F)cc(F)c2)cc1=O)Nc1ncncc1F [Example 48, 2-[3-cyclopropyl-4-(3,5-difluorophenyl)-6-oxopyridazin-1-yl]-N-(5-fluoropyrimidin-4-yl)acetamide] — within 1.5-fold, 1640 nM
- CCN1CCC[C@@H](NC(=O)Cn2nc(C(C)C)c(-c3cccc(C4CCC4)c3)cc2=O)C1 [Example 31, 2-[4-(3-cyclobutylphenyl)-6-oxo-3-propan-2-ylpyridazin-1-yl]-N-[(3R)-1-ethylpiperidin-3-yl]acetamide] — 3.8-fold higher, 6980 nM
- Cc1cccc(-c2cc(=O)n(CC(=O)N[C@H]3C[C@@](C)(O)C3)nc2C(C)C)c1F [Example 22, 2-[4-(2-fluoro-3-methylphenyl)-6-oxo-3-propan-2-ylpyridazin-1-yl]-N-(cis-3-hydroxy-3-methylcyclobutyl)acetamide] — within 1.5-fold, 1570 nM
- CCc1nn(CC(=O)Nc2ncncc2F)c(=O)c(C)c1-c1cccc(F)c1 [Example 52, 2-[3-ethyl-4-(3-fluorophenyl)-5-methyl-6-oxopyridazin-1-yl]-N-(5-fluoropyrimidin-4-yl)acetamide] — 2.4-fold higher, 4360 nM
- CC(C)c1nn(C2(C(=O)Nc3ncccn3)CC2)c(=O)cc1-c1cc(F)cc(F)c1 [Example 51, 1-[4-(3,5-difluorophenyl)-3-isopropyl-6-oxo-pyridazin-1-yl]-N-pyrimidin-2-yl-cyclopropanecarboxamide] — 1.6-fold lower, 1140 nM
- CC(C)c1nn(CC(=O)Nc2ncncc2F)c(=O)c(C(F)F)c1-c1cccc(F)c1 [Example 37, 2-[5-(difluoromethyl)-4-(3-fluorophenyl)-6-oxo-3-propan-2-ylpyridazin-1-yl]-N-(5-fluoropyrimidin-4-yl)acetamide] — 17-fold higher, 30100 nM
- CC(C)c1nn(CC(=O)Nc2ncncc2F)c(=O)cc1-c1cc(F)cc(F)c1 [Example 42, 2-[4-(3,5-difluorophenyl)-6-oxo-3-propan-2-ylpyridazin-1-yl]-N-(5-fluoropyrimidin-4-yl)acetamide] — 5.7-fold lower, 320 nM
- CC(C)c1nn(CC(=O)Nc2ncncc2F)c(=O)cc1-c1cc(F)cc(C2CC2(F)F)c1 (stereo not shown) [Example 47, 2-[4-[3-(2,2-difluorocyclopropyl)-5-fluorophenyl]-6-oxo-3-propan-2-ylpyridazin-1-yl]-N-(5-fluoropyrimidin-4-yl)acetamide] — 4.6-fold higher, 8450 nM
- CC(C)c1nn(CC(=O)Nc2ncncc2F)c(=O)cc1-c1cccc2ccncc12 [Example 33] — 1.8-fold higher, 3210 nM
- Cc1c(-c2cc(F)cc(F)c2)c(C(C)C)nn(CC(=O)Nc2ncncc2F)c1=O [Example 38, 2-[4-(3,5-difluorophenyl)-5-methyl-6-oxo-3-propan-2-ylpyridazin-1-yl]-N-(5-fluoropyrimidin-4-yl)acetamide] — 2.2-fold lower, 812 nM
- CCN1CCC[C@@H](NC(=O)Cn2nc(C(C)C)c(-c3cc(F)cc(C4CC4)c3)cc2=O)C1 [Example 30, 2-[4-(3-cyclopropyl-5-fluorophenyl)-6-oxo-3-propan-2-ylpyridazin-1-yl]-N-[(3R)-1-ethylpiperidin-3-yl]acetamide] — within 1.5-fold, 1300 nM
- CCN1CCC[C@@H](NC(=O)Cn2nc(C(C)C)c(-c3cc(F)cc(F)c3F)cc2=O)C1 [Example 32, N-[(3R)-1-ethylpiperidin-3-yl]-2-[6-oxo-3-propan-2-yl-4-(2,3,5-trifluorophenyl)pyridazin-1-yl]acetamide] — 2.8-fold lower, 649 nM
- CC(C)c1nn(CC(=O)N[C@H]2C[C@@](C)(O)C2)c(=O)cc1-c1cccc(C2CC2)c1 [Example 27, 2-[4-(3-cyclopropylphenyl)-6-oxo-3-propan-2-ylpyridazin-1-yl]-N-(cis-3-hydroxy-3-methylcyclobutyl)acetamide] — within 1.5-fold, 1910 nM
- O=C(Cn1nc(CC(F)(F)F)c(-c2cc(F)cc(F)c2)cc1=O)Nc1ncncc1F [Example 50, 2-[4-(3,5-difluorophenyl)-6-oxo-3-(2,2,2-trifluoroethyl)pyridazin-1-yl]-N-(5-fluoropyrimidin-4-yl)acetamide] — within 1.5-fold, 1640 nM
- CCN1CCC[C@@H](NC(=O)Cn2nc(C(C)C)c(-c3cccc4ccccc34)cc2=O)C1 [Example 29] — 2.1-fold lower, 874 nM
- Cc1c(-c2cccc(F)c2)c(C(C)C)nn(CC(=O)Nc2ncncc2F)c1=O [Example 36, 2-[4-(3-fluorophenyl)-5-methyl-6-oxo-3-propan-2-ylpyridazin-1-yl]-N-(5-fluoropyrimidin-4-yl)acetamide] — 1.8-fold lower, 1000 nM
- CC(C)c1nn(CC(=O)N[C@H]2C[C@@](C)(O)C2)c(=O)cc1-c1cc(F)cc(F)c1 [Example 21, 2-[4-(3,5-difluorophenyl)-6-oxo-3-propan-2-ylpyridazin-1-yl]-N-(cis-3-hydroxy-3-methylcyclobutyl)acetamide] — 2-fold lower, 902 nM
- CC(CF)c1nn(CC(=O)Nc2ncc(F)cn2)c(=O)cc1-c1cc(F)cc(F)c1 (stereo not shown) [Example 55, 2-[4-(3,5-difluorophenyl)-3-(1-fluoropropan-2-yl)-6-oxopyridazin-1-yl]-N-(5-fluoropyrimidin-2-yl)acetamide] — 1.7-fold lower, 1060 nM
- CC(C)c1nn(CC(=O)N[C@@H]2CCCN(C3CC3)C2)c(=O)cc1-c1cccc(F)c1 [Example 39, N-[(3R)-1-cyclopropylpiperidin-3-yl]-2-[4-(3-fluorophenyl)-6-oxo-3-propan-2-ylpyridazin-1-yl]acetamide] — 3.7-fold lower, 490 nM
- CC(C)c1nn(CC(=O)Nc2ncc(F)cc2F)c(=O)cc1-c1cc(F)cc(F)c1 [Example 45] — 3.1-fold lower, 596 nM
- CCOc1cccc(-c2cc(=O)n(CC(=O)N[C@H]3C[C@@](C)(O)C3)nc2C(C)C)c1 [Example 28, 2-[4-(3-ethoxyphenyl)-6-oxo-3-propan-2-ylpyridazin-1-yl]-N-(cis-3-hydroxy-3-methylcyclobutyl)acetamide] — 4.7-fold higher, 8470 nM
- O=C(Cn1nc(C2CCC2)c(-c2cc(F)cc(F)c2)cc1=O)Nc1ncc(F)cn1 [Example 56, 2-[3-cyclobutyl-4-(3,5-difluorophenyl)-6-oxopyridazin-1-yl]-N-(5-fluoropyrimidin-2-yl)acetamide] — 2.6-fold lower, 713 nM
- CC(C)c1nn(CC(=O)Nc2ncc(F)cn2)c(=O)cc1-c1cc(F)cc(F)c1 [Example 44] — 7.7-fold lower, 236 nM
- CC(C)c1nn(CC(=O)Nc2ncc(F)cn2)c(=O)cc1-c1cncc(F)c1 [Example 54, 2-[4-(5-fluoropyridin-3-yl)-6-oxo-3-propan-2-ylpyridazin-1-yl]-N-(5-fluoropyrimidin-2-yl)acetamide] — 3.8-fold higher, 6980 nM
- CC(C)c1nn(CC(=O)Nc2ncccc2F)c(=O)cc1-c1cccc(F)c1 [Example 41, 2-[4-(3-fluorophenyl)-6-oxo-3-propan-2-ylpyridazin-1-yl]-N-(3-fluoropyridin-2-yl)acetamide] — 4-fold higher, 7210 nM
- CC(C)c1nn(CC(=O)Nc2ncncc2F)c(=O)cc1-c1cc(F)cc(Cl)c1 [Example 46, 2-[4-(3-chloro-5-fluorophenyl)-6-oxo-3-propan-2-ylpyridazin-1-yl]-N-(5-fluoropyrimidin-4-yl)acetamide] — 2.9-fold lower, 637 nM
